For 1 compound, Ki results are on record in patent publication US6583166B1, “Triazole compounds with dopamine-D3-receptor affinity” (Abbott Laboratories, priority 1999, dated 2003).

The Ki is a measure of affinity in units of concentration, obtained from inhibition or displacement.

The target of this experiment is T1, human D3-receptor (Homo sapiens, UniProt P35462).
T1 construct: host or cells: CCL 1,3 mouse fibroblasts
Kind of experiment: D3 binding test (125iodosulpiride displacement). The note with it: cloned human D3 receptor in CCL 1,3 mouse fibroblast membranes; 0.1 nM 125iodosulpiride; read-out: Ki value for the binding toward the D3 receptor. The procedure: Cloned human D3-receptor-expressing CCL 1,3 mouse fibroblasts, obtainable from Res. Biochemicals Internat. One Strathmore Rd., Natick, Mass. 01760-2418 USA, were used for the binding studies.
The D3-expressing cells were multiplied in RPMI-1640 containing 10% fetal calf serum (GIBCO No. 041-32400 N); 100 U of penicillin/ml and 0.2% streptomycin (GIBO BRL, Gaithersburg, Md., USA). After 48 h, the cells were washed with PBS and incubated for 5 min with 0.05% trypsin-containing PBS. After that, the solution was neutralized with medium and the cells were collected by centrifuging at 300 g. In order to lyse the cells, the pellet was washed briefly with lysis buffer (5 mM Tris-HCl, pH 7.4, containing 10% glycerol) and after that incubated, at 4° C. for 30 min, at a concentration of 10^7 cells/ml of lysis buffer. […]
For the D3-receptor binding test, the membranes were suspended in incubation buffer (50 mM Tris-HCl, pH 7.4, containing 120 mM NaCl, 5 mM KC1, 2 mM CaCl2, 2 mM MgCl2, 10 μM quinolinol, 0.1% ascorbic acid and 0.1% BSA), at a concentration of approx. 10^6 cells/250 μl of test mixture, and incubated at 30° C. […] 0.1 nM ^125iodosulpiride in the presence and absence of the test substance. The nonspecific binding was determined using 10^−6 M spiperone. […]
The Ki values were determined by means of nonlinear regression analysis using the LIGAND program. […]

T1 sequence (P35462 whole entry): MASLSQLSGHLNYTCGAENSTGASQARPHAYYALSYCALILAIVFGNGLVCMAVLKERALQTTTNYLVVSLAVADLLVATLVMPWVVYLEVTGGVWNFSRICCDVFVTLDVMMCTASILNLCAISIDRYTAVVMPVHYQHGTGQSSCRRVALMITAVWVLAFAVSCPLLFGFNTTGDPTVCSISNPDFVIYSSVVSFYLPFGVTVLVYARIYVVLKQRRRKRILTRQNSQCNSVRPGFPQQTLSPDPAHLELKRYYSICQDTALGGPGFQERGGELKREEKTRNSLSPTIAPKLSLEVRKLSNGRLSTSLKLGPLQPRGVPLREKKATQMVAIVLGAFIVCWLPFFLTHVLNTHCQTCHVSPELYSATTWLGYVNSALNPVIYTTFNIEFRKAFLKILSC

For the compound `Cn1c(SCCCN2CCC3c4c(Br)cccc4CCC32)nnc1-c1ccccc1` (mixture of isomers) [Example 1, (cis/trans) 9-Bromo-3-{3-[(4-methyl-5-phenyl-4H-1,2,4-triazol-3-yl)sulfanyl]propyl}-2,3,3a,4,5,9b-hexahydro-1H-benzo[e]indole], the Ki stood at 50 nM.
